Measured values published in patent US12533309B2, “Minoxidil adjuvant therapies” (JUPITER WELLNESS, INC., priority 2018, dated 2026).
“And” between values parts separate entries of the source, which are not always exact repeats. Equal entries are not always repeated.

Test system: sulfotransferase in hair follicles
Assay: In-vitro evaluation of sulfotransferase up-regulation in plucked hair follicles
Assay type: cell-based, human
Conditions: for OD 405 (1)-(3), individual replicates / OD 405 Average: 24 h incubation, patient AB-001; for induction of sulfotransferase activity in plucked hair follicles (conclusion): 24 h
Procedure: The following experiment was conducted to assess the up-regulation of sulfotransferase in hair follicles by candidate compounds know to interact with human nuclear receptors (e.g., PXR and CAR).
Method: For each compound tested, 24 hairs were plucked from a human subject. […] 1 uL of DMSO with no compound was added to control samples. Hairs were allowed to incubate with the candidate compounds for 24 h at room temperature. All samples were run in triplicate, i.e., the data describe in the result section is an average of three samples tested.
After 24 h of incubation hairs were removed from the sample media and washed briefly with clean water. Hairs were trimmed to a length of ˜1 cm and immersed, bulb first, in 100 μL of an assay solution containing 50 mM phosphate buffer (pH8), 5 mM potassium p-nitrophenyl sulfate, 20 μM adenosine 3′,5′-diphosphate, 100 μM minoxidil and 5 mM MgCl2. Hairs were allowed to react with the solution for 24 hours at room temperature. After incubation, hairs were removed and the optical absorbance of the solution at 405 nm was determined with a spectrophotometer using a single scan and 1 cm path length.

[1] = 10 uM, DMSO control average 0.120 (Vitamin K2 run), 0.241 (Genistein run)
[2] = 25 uM, DMSO control average 0.241
[3] = 50 uM, DMSO control average 0.241
[4] = 0.2 uM, DMSO control average 0.195
[5] = 1 uM, DMSO control average 0.195
[6] = 5 uM, DMSO control average 0.120 (Vitamin K2 run), 0.195 (Hyperforin run)
[7] = 20 uM, DMSO control average 0.120

Compound	OD 405 (1)-(3), individual replicates [1]	OD 405 Average [1]	OD 405 (1)-(3), individual replicates [2]	OD 405 Average [2]	OD 405 (1)-(3), individual replicates [3]	OD 405 Average [3]	induction of sulfotransferase activity in plucked hair follicles (conclusion)	OD 405 (1)-(3), individual replicates [4]	OD 405 Average [4]	OD 405 (1)-(3), individual replicates [5]	OD 405 Average [5]	OD 405 (1)-(3), individual replicates [6]	OD 405 Average [6]	OD 405 (1)-(3), individual replicates [7]	OD 405 Average [7]
O=c1c(-c2ccc(O)cc2)coc2cc(O)cc(O)c12 [Genistein, genistein]	0.186 and 0.235 and 0.134	0.185	0.179 and 0.144 and 0.085	0.136	0.122 and 0.080 and 0.190	0.131	induced sulfotransferase activity	–	–	–	–	–	–	–	–
CC(C)=CCC[C@]1(C)[C@@H](CC=C(C)C)C[C@@]2(CC=C(C)C)C(=O)[C@]1(C(=O)C(C)C)C(=O)C(CC=C(C)C)=C2O [Hyperforin, hyperforin]	–	–	–	–	–	–	induced sulfotransferase activity	0.411 and 0.360 and 0.298	0.356	0.475 and 0.402 and 0.369	0.415	0.523 and 0.506 and 0.489	0.506	–	–
CC(C)=CCC/C(C)=C/CC/C(C)=C/CC/C(C)=C/CC1=C(C)C(=O)c2ccccc2C1=O [Vitamin K2, vitamin K2]	0.339 and 0.138 and 0.180	0.219	–	–	–	–	induced sulfotransferase activity	–	–	–	–	0.176 and 0.211 and 0.173	0.187	0.145 and 0.208 and 0.144	0.166
